# Measurements taken from patent US20260297118A1, “SUBSTITUTED PYRIMIDINONE AND AZAPYRIMIDINONE COMPOUNDS, COMPOSITIONS, AND USES THEREOF” (LAKEWOOD AMEDEX, INC., priority 2023, published 2026).
# Read-outs that look alike come from different tables or passages of the source.
# How the values were obtained:
# Assay type in all cases: cell-based
# Conditions in all cases: pH 3, Mueller Hinton Broth, 18 to 24 hours
# [1] = test system: Staphylococcus aureus (43330); experiment: MIC, broth microdilution, Staphylococcus aureus (43330)
# Procedure: (§1) MIC testing is conducted using the broth (Mueller Hinton Broth) microdilution procedures relevant to each organism group as established by the Clinical and Laboratory Standards Institute (CLSI; 3-7). MIC plates are prepared in accordance with CLSI (3-7). To prepare the test plates, automated liquid handlers are used to conduct serial dilutions and liquid transfers. Automated liquid handlers utilized in this study include the Multidrop 384 (Labsystems, Helsinki, Finland) and the Biomek 2000 (Beckman Coulter, Fullerton CA). The solution is diluted to desired pH using 1 M Citric Acid or 1 M NaOH buffer. A standardized inoculum of each test organism is prepared per CLSI methods (3, 5-7) to equal a 0.5 McFarland standard in the appropriate media followed by an additional 1:20 dilution (1:10 for anaerobes).
# (§2) The plates are then inoculated with 10 μL of the diluted 0.5 McFarland suspension using the Biomek 2000 from low to high drug concentration, resulting in a final concentration of approximately 5×10^5 CFU/mL per well. An un-inoculated plate is incubated for the purpose of assessing solubility of the drug in the test media. The plates are stacked 3 to 4 high, covered with a sterile lid on the top plate, and incubated for 18 to 24 hours according to CLSI. The MIC is recorded as the lowest concentration of respective compound that inhibited visible growth of the organism.
# [2] = test system: Candida albicans (22972); experiment: MIC, broth microdilution, Candida albicans (22972)
# Procedure: as §1, §2
# [3] = test system: Escherichia coli (25922); experiment: MIC, broth microdilution, Escherichia coli (25922)
# Procedure: as §1, §2
# [4] = test system: Pseudomonas aeruginosa (27853); experiment: MIC, broth microdilution, Pseudomonas aeruginosa (27853)
# Procedure: as §1, §2
molecule,measurement,setting,value
"CCCCCCCCOP(=O)(O)OC[C@H]1O[C@@H](n2ccc(N)nc2=O)C[C@@H]1O [LAI-001, ((2R,3S,5R)-5-(4-amino-2-oxopyrimidin-1(2H)-yl)-3-hydroxytetrahydrofuran-2-yl)methyl octyl hydrogen phosphate]",MIC,[1]; read-out: MIC,20 mg/mL
same,MIC,[2]; read-out: MIC,20 mg/mL
same,MIC,[3]; read-out: MIC,20 mg/mL
same,MIC,[4]; read-out: MIC,20 mg/mL
"CCCCCCOP(=O)(O)OC[C@H]1O[C@@H](n2ccc(N)nc2=O)C[C@@H]1O [LAI-002, ((2R,3S,5R)-5-(4-amino-2-oxopyrimidin-1(2H)-yl)-3-hydroxytetrahydrofuran-2-yl)methyl hexyl hydrogen phosphate]",MIC,[1]; read-out: MIC,25 mg/mL
same,MIC,[2]; read-out: MIC,50 mg/mL
same,MIC,[3]; read-out: MIC,25 mg/mL
same,MIC,[4]; read-out: MIC,5 mg/mL
"CC(C)COP(=O)(O)OC[C@H]1O[C@@H](n2ccc(N)nc2=O)C[C@@H]1O [LAI-003, ((2R,3S,5R)-5-(4-amino-2-oxopyrimidin-1(2H)-yl)-3-hydroxytetrahydrofuran-2-yl)methyl isobutyl hydrogen phosphate]",MIC,[1]; read-out: MIC,20 mg/mL
same,MIC,[2]; read-out: MIC,20 mg/mL
same,MIC,[3]; read-out: MIC,20 mg/mL
same,MIC,[4]; read-out: MIC,20 mg/mL
"CC(C)CCOP(=O)(O)OC[C@H]1O[C@@H](n2ccc(N)nc2=O)C[C@@H]1O [LAI-004, ((2R,3S,5R)-5-(4-amino-2-oxopyrimidin-1(2H)-yl)-3-hydroxytetrahydrofuran-2-yl)methyl isopentyl hydrogen phosphate]",MIC,[1]; read-out: MIC,50 mg/mL
same,MIC,[2]; read-out: MIC,50 mg/mL
same,MIC,[3]; read-out: MIC,25 mg/mL
same,MIC,[4]; read-out: MIC,5 mg/mL
"Nc1ccn([C@H]2C[C@H](O)[C@@H](COP(=O)(O)OCCCC(F)(F)F)O2)c(=O)n1 [LAI-005, ((2R,3S,5R)-5-(4-amino-2-oxopyrimidin-1(2H)-yl)-3-hydroxytetrahydrofuran-2-yl)methyl (4,4,4-trifluorobutyl) hydrogen phosphate]",MIC,[1]; read-out: MIC,50 mg/mL
same,MIC,[3]; read-out: MIC,25 mg/mL
same,MIC,[4]; read-out: MIC,25 mg/mL
"CCCCOP(=O)(O)OC[C@H]1O[C@@H](n2ccc(NC)nc2=O)C[C@@H]1O [LAI-009, butyl (((2R,3S,5R)-3-hydroxy-5-(4-(N-methylamino)-2-oxopyrimidin-1(2H)-yl)tetrahydrofuran-2-yl)methyl) hydrogen phosphate]",MIC,[1]; read-out: MIC,25 mg/mL
same,MIC,[2]; read-out: MIC,50 mg/mL
same,MIC,[3]; read-out: MIC,25 mg/mL
same,MIC,[4]; read-out: MIC,5 mg/mL
"(2R,3S,5R)-5-(4-amino-2-oxopyridizin-1(2H)-yl)-3-hydroxytetrahydrofuran-2-methyl butyl phosphate [LAI-011]",MIC,[1],25 mg/mL
same,MIC,[2],5 mg/mL
same,MIC,[3],25 mg/mL
same,MIC,[4],5 mg/mL
